Experimental data: patent US11666547B2, “Methods for treating cognitive deficits in a subject having schizophrenia, bipolar disorder, or psychiatric depression, and exhibiting cognitive deficits by administering an antagonist of the Na+-K+-2Cl-cation-chloride cotransporter isoform 1 (NKCC1)” (NORTHWESTERN UNIVERSITY, priority 2019, dated 2023)

Columns and labels:
[1] = system: CaMK2A+/- mice; format: in vivo; conditions: for Discrimination index, rescue of NOR deficit, single agent at the dose used in the combination: CaMKIIα+/- mice, agent alone
Description: (§1) (See Yamasaki et al., “Alpha-CaMKII deficiency causes immature dentate gyrus, a novel candidate endophenotype of psychiatric disorders,” Molecular Brain, 1 (2008) 6; and McCarthy et al., “Microduplications of 16p11.2 are associated with schizophrenia,” Nat. Gene., 41 (2009) 1223-1227; respectively). Both models are relevant to human conditions. CaMK2A loss causes cognitive dysfunction and has been implication in psychiatric disorders including schizophrenia. (See Yamasaki et al., “Alpha-CaMKII deficiency causes immature dentate gyrus, a novel candidate endophenotype of psychiatric disorders,” Molecular Brain, 1 (2008) 6; Kool et al., “CAMK2-dependent Signaling in Neurons is Essential for Survival,” J. Neuroscience: the official journal of the Society for Neuroscience, 39 (2019) 5424-5439; and Papaleo et al., “Mouse models of genetic effects on cognition: relevance to schizophrenia,” Neuropharmacology, 62 (2012) 1204-1220). […] (See Niarchou et al., “Psychiatric disorders in children with 16p11.2 deletion and duplication,” Translational psychiatry, 9 (2019) 8). […] (FIG. 9).

[2] = system: pyramidal neurons of the infralimbic cortex (ILC) of scPCP mice; experiment: GABAA reversal potential (EGABA), perforated patch recordings in acute mPFC slices; format: cell-based; conditions: bumetanide 0.3 mg/kg ip 30-40 min before dissection, 10 uM perfused into mPFC slice in incubation and recording chambers
Description: FIG. 4. (A) Left Panels: Example traces of GABAA current response by electrical stimulation in mPFC pyramidal neurons in control (top panel, black) and in scPCP (bottom, red). Bipolar electrode was put in layer 1, 100-200 um apart from recording site within layer2/3 with presence of 3 mM kynurenic acid to block any glutamatergic synaptic currents. The response was evoked by the same size of single stimulus (0.2-1 mA, 0.2 ms) at five different holding voltages (−100, −80, −60, −40, −20 mV) for each neuron. For each voltage, a neuron was tested multiple times and those 5-10 traces tested at the same voltage were averaged later for peak analysis. […] Right Panels: Example GABAA reversal potential (EGABA) of a neuron in control (top panel, black) and in scPCP (bottom, red) calculated from traces shown in (A). For the individual neuron, the peak size of current responses was measured (maximal current peak if the evoked response is positive while minimal current peak if negative) and plotted by holding voltages. […] Dotted gray lines to present average resting potentials for each group, which were measured by whole-cell patch recordings from separated neuron groups (each n>7). […] Dotted gray lines represent the resting potentials, which were measured by whole-cell patch recordings in different sets of experiment (each n>7). […]

[3] = system: 16p11.2DUP mice; experiment: Novel object recognition in 16p11.2 duplication mouse model; format: in vivo; conditions: 0.1 mg/kg, ip, p<0.001
Description: as §1

[4] = system: PCP model of cognitive impairment; experiment: Prevention of development of cognitive impairment, given prior to PCP treatment; format: in vivo, mice; conditions: given prior to one week's treatment with PCP
Description: Bumetanide prevented the development of cognitive impairment when give prior to one weeks treatment with PCP. This is evidence that bumetanide could prevent the onset of cognitive impairment in schizophrenia and bipolar disorder. […] The discovery of these synergistic actions which will have value in the treatment of many neuropsychiatric disorders. Neurosteroids such as allopregnanolone is a GABA A agonist which could be used clinically with bumetanide to treat post-partum depression, other forms of depression.

[5] = system: 16p11.2DUP mice; experiment: Y maze in 16p11.2 duplication mouse model; format: in vivo; conditions: 0.1 mg/kg, ip, p<0.001
Description: as §1

[6] = system: scPCP mice; experiment: Novel object recognition (NOR) test in subchronic phencyclidine (scPCP) mice; format: in vivo, C57BL/6J mice; conditions: for Discrimination index, novel object recognition (rescue of scPCP-induced NOR deficit): male C57BL/6J mice
Description: FIG. 7. Bumetanide treatment rescues the cognitive impairment in scPCP mice. Discrimination index calculated from novel object recognition tests. […] 10 mice were measured for each experimental group.
FIG. 8. Bumetanide rescues Novel Object Recognition task in female scPCP mice. […] Data are from 9 mice per group. One-way ANOVA followed by post-hoc bonferroni correction was done where significance was observed. p<0.01. (Additional data not shown).
To begin filling this gap, here we took advantage of the subchronic phencyclidine (scPCP) treatment, which is a well-established established rodent model of cognitive deficits in schizophrenia (Jentsch and Roth, 1999; Steeds et al. 2015) and performed patch clamp recordings from pyramidal neurons in acute slices of the IL cortex (ILC) and PL cortex (PLC). (FIG. 1).
Routine for mPFC recording. 3 week-old mice were injected with saline (vehicle) or PCP (0.1 mg/kg) two times a day for 7 consecutive days and rested for another 7 days without injections. They were then sacrificed for recordings within 7 days.

[7] = system: scPCP-treated mice; experiment: PCP- and amphetamine-induced increase in locomotor activity in scPCP-treated mice; format: in vivo; conditions: bumetanide 0.3 mg/ml, icy
Description: This can be interpreted as evidence for ability to treat delusions and hallucinations in psychotic disorders, including schizophrenia, major depression, bipolar disorder, various dementias, including vascular dementia and other neurodegenerative disorders. These finding have immediate translational value, as bumetanide is an already approved drug that could be promptly used to improve cognition in patients with cognitive impairment, psychosis, or negative symptoms in the disorders cited above.

[8] = system: PCP treated mouse; experiment: Social interaction in the PCP treated mouse; format: in vivo
[9] = system: CaMK2A+/- mice; experiment: Y maze in CaMK2A+/- mouse model; format: in vivo; conditions: 0.1 mg/kg, ip, p<0.001
Description: as §1

[10] = system: scPCP-treated mice subjected to chronic unpredictable stress; experiment: Memory deficit in scPCP-treated mice subjected to chronic unpredictable stress (CUS); format: in vivo; conditions: chronic unpredictable stress 21 days, 0.1 mg/kg
Description: Bumetanide acts by blocking the NKCC1 cation-chloride cotransporter and causes the reversal potential of the GABAA-mediated current to become more hyperpolarized (thus the inhibitory effect becomes stronger). […] Most importantly, in-vivo administration of bumetanide rescues cognitive function in PCP mice and also prevents enduring deficit of cognitive function.

Structure (SMILES) | NOR performance ([1]; CaMK2A+/- mice, 0.1 mg/kg, ip, p<0.001) | Discrimination index, rescue of NOR deficit, single agent at the dose used in the combination [1] | GABAA reversal potential in layer 2/3 and layer 5 of ILC [2] | NOR performance [3] | Development of cognitive impairment [4] | Y maze performance [5] | Performance in the novel object recognition task ([6]; PCP-treated mice, oral administration of a single dose (FIG. 7)) | Novel Object Recognition test (rescue of scPCP-induced deficits) ([6]; female C57BL/6J mice, single dose IP, p<0.01) | Discrimination index, novel object recognition (rescue of scPCP-induced NOR deficit) ([6]; 0.1 mg/kg, ip) | Discrimination index, novel object recognition (rescue of scPCP-induced NOR deficit) ([6]; 0.3 mg/ml, icy) | PCP-induced increase in locomotor activity ([7]; PCP 10 mg/kg) | Amphetamine-induced increase in locomotor activity ([7]; amphetamine 2.5 mg/kg) | Social interaction [8] | Y maze performance [9] | Memory deficit [10]
CCCCNc1cc(C(=O)O)cc(S(N)(=O)=O)c1Oc1ccccc1 [bumetanide] | completely rescued | sub-effective | normalizes | completely rescued | prevented | completely rescued | completely rescues | significantly rescued | completely rescues | completely rescues | significantly blocked | significantly blocked | effective | completely rescued | significantly rescued
Cc1nc2n(c(=O)c1CCN1CCC(c3noc4cc(F)ccc34)CC1)CCCC2 [risperidone] | – | ineffective | – | – | – | – | – | – | – | – | – | – | – | – | –
